The values that follow come from US20250122257A1, “USE OF KININ OR DERIVATIVE THEREOF IN TREATING VCI, PSCI, OR CSVD” (ZonHon Biopharma Institute, Inc., priority 2022, published 2025).

For series [1] the following is noted: in vivo, cited from earlier work.
The target in the next series is T1, B2 receptor (Homo sapiens, UniProt P30411).
T1 construct: expressed in transfected cells
T1 sequence (P30411 1-391): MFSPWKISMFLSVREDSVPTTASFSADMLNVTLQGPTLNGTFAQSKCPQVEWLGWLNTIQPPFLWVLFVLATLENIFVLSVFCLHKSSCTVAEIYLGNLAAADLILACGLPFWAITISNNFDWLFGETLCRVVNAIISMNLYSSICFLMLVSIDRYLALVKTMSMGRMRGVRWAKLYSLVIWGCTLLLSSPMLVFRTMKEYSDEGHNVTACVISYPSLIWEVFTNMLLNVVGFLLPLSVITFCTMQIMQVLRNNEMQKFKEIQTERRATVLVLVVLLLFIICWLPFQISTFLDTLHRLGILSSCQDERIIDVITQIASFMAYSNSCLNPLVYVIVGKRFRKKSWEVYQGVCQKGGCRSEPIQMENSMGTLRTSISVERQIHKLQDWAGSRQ
In words: Affinity activity to B2 receptor, reporter gene assay in B2-NFAT-CHO-K1 cells. The format is cell-based. To be noted: relative activity calculated from EC50, 5 hours. As to the method:
The cell line B2-NFAT-CHO-K1 stably transfected with B2 receptor reporter gene was constructed based on CHO-K1 host cells and the cell library was constructed. The B2-NFAT-CHO-K1 cell library was used to evaluate the binding activity of lysyl bradykinin/bradykinin or its variants or PEG modified products to B2 receptor in vitro.
Detection methods: The cells were cultured in 96-well plates at 5×10^4cells/well, 37° C., 5% CO2 for 16-20 hours, and then gradient diluted standard and test solutions were added. After 5 hours, added Bio-Lite luciferase detection reagent and the chemiluminescence intensity was measured. GraphPad was used to make four-parameter equation curve and calculate the relative activity according to the EC50 value.
(§1) In vitro B2-receptor affinity activity and activity of activating downstream signaling pathway of PEG conjugates of lysyl bradykinin and its variants were tested, as in Example 3.

In series [2] the test system is B2 receptor downstream signals p-CREB and p-ERK1/2. In words: Phosphorylation of downstream ERK1/2 and CREB by WB in CHO-K1 (B2R+) cells. Type of series: cell-based. The note with it: FIG. 3, WB. As to the method: as §1

Like-named read-outs stand apart in the source and are kept apart here. Square brackets hold non-standard residues; d marks the D form. Ends that are not written are not given here. Peptide text beside a SMILES is read from it. 2Thi = N[C@@H](Cc1cccs1)C(=O)O

For `NC(N)=NCCC[C@H](NC(=O)[C@H](Cc1ccccc1)NC(=O)[C@@H]1CCCN1C(=O)[C@H](CO)NC(=O)[C@H](Cc1ccccc1)NC(=O)CNC(=O)[C@@H]1CCCN1C(=O)[C@@H]1CCCN1C(=O)[C@@H](N)CCCN=C(N)N)C(=O)O` [BK, bradykinin] (H-RPPGFSPFR-OH), the Half-life entry in series [1] (reported) is on record as “only seconds”.

With `NCCCC[C@H](N)C(=O)N[C@@H](CCCN=C(N)N)C(=O)N1CCC[C@H]1C(=O)N1CCC[C@H]1C(=O)NCC(=O)N[C@@H](Cc1ccccc1)C(=O)N[C@@H](CO)C(=O)N1CCC[C@H]1C(=O)N[C@@H](Cc1ccccc1)C(=O)N[C@@H](CCCN=C(N)N)C(=O)O` [Lys-BK, lysyl bradykinin], the Half-life entry in series [1] was “only seconds”.

On to “Lys-BKm08: PG{THI}SPFR, SEQ ID NO 9 (PG[2Thi]SPFR)”, for which the “Relative affinity activity to B2 receptor” value (“Relative affinity activity” for short) with B2 receptor is on record as less than 10%.

Turning to “Lys-BKm09: {THI}SPFR, SEQ ID NO 10 ([2Thi]SPFR)”, the “Relative affinity activity” value in the series with B2 receptor is recorded as 0%.

Turning to Lys-BKm10: SPFR, SEQ ID NO 11, in the series with B2 receptor, the “Relative affinity activity” value is 0%.

“Lys-BKm13-SPA5K: Lys-BKm13 modified with SPA5K PEG (CRRPPG[2Thi]SPFR; also: modified with SPA5K PEG, site not given here)”: in series [2], the “Activity of PEG conjugates in activating phosphorylation of ERK1/2 and CREB (in words)” value is recorded as “highest activity among different peptide variants”.
